{"source": "paper PMC10258794", "about": "“To Fold or Not to Fold: Diastereomeric Optimization of an α-Helical Antimicrobial Peptide” (Journal of Medicinal Chemistry, 2023)", "molecules": {"B1": {"name": "FHP30 (peptide)", "peptide": "{α‑L‑fucosyl‑acetyl}-K[dK]L[dL]K[dL]L[dK]L[dL]L", "notes": "also called fucosylated analogue of HP30; source: synthetic peptide (Fmoc solid-phase synthesis on Tentagel S RAM resin, preparative RP-HPLC)"}}, "key": {"Burkolderia cenocepacia": {"test_system": "Burkolderia cenocepacia", "assay": "microbe, parasite or virus in culture"}, "Enterobacter cloacae": {"test_system": "Enterobacter cloacae", "assay": "microbe, parasite or virus in culture", "conditions": "pH 7.4", "method_in_brief": "(§1)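 Compounds were 2-fold serially diluted from a 2 mg/mL stock and plates were incubated statically for 16–20 h at 37 °C. MIC is the lowest concentration preventing visible growth, read after MTT staining.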"}, "P. aeruginosa PA14": {"test_system": "P. aeruginosa PA14", "assay": "microbe, parasite or virus in culture", "method_in_brief": "as §1"}, "P. aeruginosa ZEM-1A": {"test_system": "P. aeruginosa ZEM-1A", "assay": "microbe, parasite or virus in culture", "conditions": "pH 7.4", "method_in_brief": "as §1"}, "PA14 2P4 (pmrB)": {"test_system": "PA14 2P4 (pmrB)", "assay": "microbe, parasite or virus in culture", "conditions": "supplementary CSV", "method_in_brief": "as §1"}, "PA14 4.13 (phoQ)": {"test_system": "PA14 4.13 (phoQ)", "assay": "microbe, parasite or virus in culture", "conditions": "supplementary CSV", "method_in_brief": "as §1"}, "PA14 4.18 (pmrB)": {"test_system": "PA14 4.18 (pmrB)", "assay": "microbe, parasite or virus in culture", "conditions": "supplementary CSV", "method_in_brief": "as §1"}, "P. aeruginosa ZEM9A": {"test_system": "P. aeruginosa ZEM9A", "assay": "microbe, parasite or virus in culture", "assay_type": "cell-based, Pseudomonas aeruginosa", "conditions": "pH 7.4", "method_in_brief": "as §1"}, "K. pneumoniae Oxa-48": {"test_system": "K. pneumoniae Oxa-48", "assay": "MIC broth microdilution, K. pneumoniae Oxa-48", "assay_type": "cell-based, Klebsiella pneumoniae", "conditions": "MDR strain; MH broth pH 7.4, 16–20 h, 37 °C", "method_in_brief": "as §1"}, "[1]": {"test_system": "Stenotrophomonas maltophilia", "assay": "microbe, parasite or virus in culture", "assay_type": "cell-based", "conditions": "pH 7.4", "method_in_brief": "as §1"}, "Staphylococcus epidermis": {"test_system": "Staphylococcus epidermis", "assay": "MIC broth microdilution, Staphylococcus epidermis", "assay_type": "cell-based", "conditions": "pH 7.4", "method_in_brief": "as §1"}, "HEK293 cells": {"test_system": "HEK293 cells", "assay": "Alamar blue cytotoxicity, HEK293", "assay_type": "cell-based, human", "conditions": "24 h, mean ± SD, n = 3, read-out: Toxicity on HEK293 cells", "method_in_brief": "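Cells seeded 4000/well (HEK293, DMEM) or 8000/well (A549, RPMI-1640) with 10% FBS, then exposed to increasing compound concentrations for 24 h at 37 °C, 5% CO2. AlamarBlue (10%) added for 3–5 h; fluorescence ex 560/em 590 nm, normalized to untreated cells.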"}, "A549 cells": {"test_system": "A549 cells", "assay": "Alamar blue cytotoxicity, A549", "assay_type": "cell-based, human", "conditions": "24 h, mean ± SD, n = 3, read-out: Toxicity on A549 lung cancern cells", "description": "The A549 human lung adenocarcinoma cells are derived from a patient and were kindly given to us by Dr. Georgia Konstatinidou (Pharmacology Institute, Bern University). HEK293T cells were obtained from ATCC (CRL-11268). A549 and HEK293 were cultured in an incubator at 37 °C with 5% CO2 in RPMI-1640 (Gibco) and DMEM (Gibco) containing 10% fetal bovine serum (Thermo Fisher), 100 I.U./mL penicillin, and 100 μg/mL streptomycin (Gibco).\nThe viability of the cells was assessed with an AlamarBlue assay (ThermoFisher). Cells were seeded into 96-well plates, 4000 cells/well (HEK293) and 8000 cells/well (A549), the day before the experiment. Cells were then treated with the increasing concentration of the compound and incubated for 24 h at 37 °C in the presence of 5% CO2. The next day, the medium was removed and replaced by a 10% AlamarBlue solution in full growth medium (DMEM or RPMI-1640). The cells were incubated for 3–5 h at 37 °C with 5% CO2 in a humidified atmosphere. The fluorescence was then measured on a Tecan Infinite M1000 Pro plate reader at λex 560 nm and λem 590 nm. The value was normalized according to the untreated cells."}, "[2]": {"conditions": "24 h, […] human serum in TRIS buffer pH 7.4, 37 °C", "description": "Human serum was diluted in 0.1 M filtered TRIS buffer (pH 7.4) (25%, 1:3, v/v). Selected peptides were diluted in 0.1 M filtered TRIS buffer (pH 7.4) to a concentration of 400 μM, and 0.1 mg/mL 4- hydroxybenzoic acid was added as an internal standard. Aliquots of peptide solution (50 μL) were added to aliquots of serum (50 μL) in sterile Eppendorf tubes, to reach a peptide concentration of 200 μM during the assay. Samples were incubated at 37 °C under gentle stirring (350 rpm). Different samples (triplicates) were quenched at different time points (0/1/6/12/24 h) by precipitating serum proteins through the addition of ZnSO4·7 H2O/ACN (1:1) (0.1 M, 100 μL) and cooling in ice bath for 10 min. Protein precipitates were pelleted under centrifugation, and supernatants were then sampled and analyzed by LC–MS. Experiment controls included two references, one known to be degraded and one known to be undegraded. Peaks corresponding to the internal standard and the undegraded peptides were integrated, with the ratio peptide/standard at t = 0 h as 100%."}, "A. baumannii ATCC19606": {"test_system": "A. baumannii ATCC19606", "method_in_brief": "as §1"}, "E. coli W3110": {"test_system": "E. coli W3110", "method_in_brief": "as §1"}, "K. pneumoniae NCTC418": {"test_system": "K. pneumoniae NCTC418", "method_in_brief": "as §1"}, "P. aeruginosa PAO1": {"test_system": "P. aeruginosa PAO1", "method_in_brief": "as §1"}, "S. aureus COL MRSA": {"test_system": "S. aureus COL MRSA", "method_in_brief": "as §1"}, "[3]": {"target": "the molecule itself", "assay": "crystal structure; co-crystallisation of the C-fucosylated peptide with LecB, sitting drop vapor diffusion, 18 °C; LecB 5 mg/mL in water with 6 mM CaCl2 and MgCl2; peptide at 5:1 molar excess over the LecB monomer"}, "[4]": {"conditions": "MH broth pH 7.4, 16–20 h, 37 °C"}, "[5]": {"conditions": "supplementary CSV, ranges of Table 1 given as one number"}}, "note": "Read-outs that look alike come from different tables or passages of the source. Non-standard residues stand in square brackets, D forms with d. No end group written: not given here."}
{"molecule": "CC(C)C[C@@H](NC(=O)[C@@H](CC(C)C)NC(=O)[C@@H](CC(C)C)NC(=O)[C@H](CCCCN)NC(=O)[C@@H](CC(C)C)NC(=O)[C@@H](CC(C)C)NC(=O)[C@H](CCCCN)NC(=O)[C@@H](CC(C)C)NC(=O)[C@@H](CC(C)C)NC(=O)[C@H](CCCCN)NC(=O)[C@@H](N)CCCCN)C(N)=O", "note": "[dln69, KKllKllKlll]", "values": [{"measurement": "MIC Burkolderia cenocepacia", "setting": "Burkolderia cenocepacia; MDR strain, MH broth pH 7.4, 16–20 h, 37 °C", "result": ">64", "unit": "µg/mL"}, {"measurement": "MIC B. cenocepacia", "setting": "Burkolderia cenocepacia; supplementary CSV", "result": "> 64", "unit": "µg/mL"}, {"measurement": "MIC Enterobacter cloacae", "setting": "Enterobacter cloacae", "result": 4, "unit": "µg/mL"}, {"measurement": "MIC PA14", "setting": "P. aeruginosa PA14; [4]", "result": 1, "unit": "µg/mL"}, {"measurement": "MIC P. aeruginosa PA14", "setting": "P. aeruginosa PA14; supplementary CSV", "result": 1, "unit": "µg/mL"}, {"measurement": "MIC ZEM-1A", "setting": "P. aeruginosa ZEM-1A", "result": 4, "unit": "µg/mL"}, {"measurement": "MIC P. aeruginosaPA14 2P4", "setting": "PA14 2P4 (pmrB)", "result": 16, "unit": "µg/mL"}, {"measurement": "MIC P. aeruginosa PA14 4.13", "setting": "PA14 4.13 (phoQ)", "result": 2, "unit": "µg/mL"}, {"measurement": "MIC P. aeruginosa PA14 4.18", "setting": "PA14 4.18 (pmrB)", "result": 8, "unit": "µg/mL"}, {"measurement": "MIC ZEM9A", "setting": "P. aeruginosa ZEM9A", "result": 8, "unit": "µg/mL"}, {"measurement": "MIC K. pneumoniae Oxa-48", "setting": "K. pneumoniae Oxa-48", "result": 8, "unit": "µg/mL"}, {"measurement": "MIC Stenotrophomonas maltophilia", "setting": "[1]", "result": 2, "unit": "µg/mL"}, {"measurement": "MIC Staphylococcus epidermis", "setting": "Staphylococcus epidermis", "result": 4, "unit": "µg/mL"}, {"measurement": "IC50", "setting": "HEK293 cells", "result": "87 ± 2", "unit": "µM"}, {"measurement": "IC50", "setting": "A549 cells", "result": "7.2 ± 6.5", "unit": "µM"}, {"measurement": "serum stability", "setting": "[2]", "result": "entirely degraded"}, {"measurement": "MIC A. baumannii ATCC19606", "setting": "A. baumannii ATCC19606; [4]", "result": 2, "unit": "µg/mL"}, {"measurement": "MIC A. baumannii ATCC19606", "setting": "A. baumannii ATCC19606; [5]", "result": 2, "unit": "µg/mL"}, {"measurement": "MIC E. coli W3110", "setting": "E. coli W3110; [4]", "result": "0.5 to 1", "unit": "µg/mL"}, {"measurement": "MIC E. coli W3110", "setting": "E. coli W3110; [5]", "result": 1, "unit": "µg/mL"}, {"measurement": "MIC K. pneumoniae NCTC418", "setting": "K. pneumoniae NCTC418; [4]", "result": 4, "unit": "µg/mL"}, {"measurement": "MIC K. pneumoniae NCTC418", "setting": "K. pneumoniae NCTC418; [5]", "result": 4, "unit": "µg/mL"}, {"measurement": "MIC P. aeruginosa PAO1", "setting": "P. aeruginosa PAO1; [4]", "result": "2 to 4", "unit": "µg/mL"}, {"measurement": "MIC P. aeruginosa PAO1", "setting": "P. aeruginosa PAO1; [5]", "result": 3, "unit": "µg/mL"}, {"measurement": "MIC S. aureus COL MRSA", "setting": "S. aureus COL MRSA; [4]", "result": 2, "unit": "µg/mL"}, {"measurement": "MIC S. aureus COL", "setting": "S. aureus COL MRSA; [5]", "result": 2, "unit": "µg/mL"}, {"measurement": "MIC S. aureus Newman", "setting": "S. aureus Newman; [4]", "result": 1, "unit": "µg/mL"}, {"measurement": "MIC S. aureus Newmann", "setting": "S. aureus Newman; supplementary CSV", "result": 1, "unit": "µg/mL"}]}
{"molecule": "B1", "values": [{"measurement": "stoichiometry N", "setting": "[3]", "result": 4}]}
